According to ChEMBL document CHEMBL5346873, “Strategic modification of low-activity natural antimicrobial peptides confers antibacterial potential in vitro and in vivo” (Eur J Med Chem, 2023):
Calls of active or inactive are those of the source. The calls are words filed in the database; no cut-off is given here.

Legend:
Pseudomonas aeruginosa [1] = test: Antibacterial activity against Pseudomonas aeruginosa incubated for 16 to 20 hrs; format: functional; conditions: time 16-20 hrs
Escherichia coli [2] = test: Antibacterial activity against Escherichia coli incubated for 16 to 20 hrs; format: functional; conditions: time 16-20 hrs
Klebsiella aerogenes [3] = test: Antibacterial activity against Enterobacter aerogenes incubated for 16 to 20 hrs; format: functional; conditions: time 16-20 hrs
Vibrio harveyi = test: Antibacterial activity against Vibrio harveyi incubated for 16 to 20 hrs; format: functional; conditions: time 16-20 hrs
Vibrio anguillarum [4] = test: Antibacterial activity against Listonella anguillarum incubated for 16 to 20 hrs; format: functional; conditions: time 16-20 hrs
Salmonella enterica = test: Antibacterial activity against Salmonella enterica incubated for 16 to 20 hrs; format: functional; conditions: time 16-20 hrs
[5] = system: Staphylococcus haemolyticus; test: Antibacterial activity against Staphylococcus haemolyticus incubated for 16 to 20 hrs; format: functional; conditions: time 16-20 hrs
Streptococcus iniae [6] = test: Antibacterial activity against Streptococcus iniae incubated for 16 to 20 hrs; format: functional; conditions: time 16-20 hrs
Streptococcus agalactiae [7] = test: Antibacterial activity against Streptococcus agalactiae incubated for 16 to 20 hrs; format: functional; conditions: time 16-20 hrs
Vibrio vulnificus [8] = test: Antibacterial activity against Vibrio vulnificus V2 incubated for 16 to 20 hrs; format: functional; conditions: time 16-20 hrs
Pseudomonas aeruginosa [9] = test: Bactericidal activity against Pseudomonas aeruginosa incubated overnight; format: functional
Klebsiella pneumoniae [10] = test: Bactericidal activity against NDM Klebsiella pneumoniae incubated overnight; format: functional
Escherichia coli [11] = test: Bactericidal activity against Escherichia coli incubated overnight; format: functional
Vibrio vulnificus [12] = test: Bactericidal activity against Vibrio vulnificus 204 incubated overnight; format: functional
Edwardsiella tarda = test: Bactericidal activity against Edwardsiella tarda incubated overnight; format: functional
Vibrio anguillarum [13] = test: Bactericidal activity against Listonella anguillarum incubated overnight; format: functional
Klebsiella oxytoca = test: Bactericidal activity against Klebsiella oxytoca incubated overnight; format: functional
Salmonella typhimurium = test: Bactericidal activity against Salmonella typhimurium incubated overnight; format: functional, Salmonella enterica subsp. enterica serovar Typhimurium; conditions: Salmonella enterica
Streptococcus agalactiae [14] = test: Bactericidal activity against Streptococcus agalactiae incubated overnight; format: functional
Enterococcus faecalis = test: Bactericidal activity against Enterococcus faecalis incubated overnight; format: functional
Enterococcus faecium = test: Bactericidal activity against Enterococcus faecium incubated overnight; format: functional
Candida tropicalis = test: Fungicidal activity against Candida tropicalis incubated overnight; format: functional
Vibrio vulnificus [15] = test: Bactericidal activity against Vibrio vulnificus V1 incubated overnight; format: functional
Vibrio vulnificus [16] = test: Bactericidal activity against Vibrio vulnificus V2 incubated overnight; format: functional
[17] = Cytotoxicity against human HaCaT cells incubated for 24 hrs by alamar blue assay; format: toxicity, cell-based; conditions: read-out: LD50
[18] = Cytotoxicity against human HaCaT cells incubated for 24 hrs by MTS assay; format: toxicity, cell-based; conditions: read-out: LD50
Vibrio vulnificus [19] = test: Antibacterial activity against Vibrio vulnificus 204 assessed as LPS neutralization at 0.25 to 2 times MIC measured after 1 hr by LAL assay; format: functional, organism-based
Vibrio vulnificus [20] = test: Antibiofilm activity against Vibrio vulnificus 204 assessed as inhibition of biofilm formation at 25 to 100 ug/ml incubated for 24 hrs by crystal violet staining based assay; format: functional, organism-based; conditions: dose 25-100 µg/ml
Vibrio vulnificus [21] = test: Antibiofilm activity against Vibrio vulnificus V2 assessed as inhibition of biofilm formation at 25 to 100 ug/ml incubated for 24 hrs by crystal violet staining based assay; format: functional, organism-based; conditions: dose 25-100 µg/ml
Vibrio vulnificus [22] = test: Antibiofilm activity against Vibrio vulnificus V1 assessed as inhibition of biofilm formation at 25 to 100 ug/ml incubated for 24 hrs by crystal violet staining based assay; format: functional, organism-based; conditions: dose 25-100 µg/ml
Vibrio vulnificus [23] = test: Antibiofilm activity against Vibrio vulnificus V3 assessed as inhibition of biofilm formation at 25 to 100 ug/ml incubated for 24 hrs by crystal violet staining based assay; format: functional, organism-based; conditions: dose 25-100 µg/ml
Vibrio vulnificus [24] = test: Antibiofilm activity against Vibrio vulnificus V1 assessed as inhibition of biofilm formation at 50 to 100 ug/ml incubated for 24 hrs by crystal violet staining based assay; format: functional, organism-based; conditions: dose 50-100 µg/ml
Vibrio vulnificus [25] = test: Antibiofilm activity against Vibrio vulnificus V2 assessed as inhibition of biofilm formation at 50 to 100 ug/ml incubated for 24 hrs by crystal violet staining based assay; format: functional, organism-based; conditions: dose 50-100 µg/ml
Vibrio vulnificus [26] = test: Antibiofilm activity against Vibrio vulnificus V3 assessed as inhibition of biofilm formation at 50 to 100 ug/ml incubated for 24 hrs by crystal violet staining based assay; format: functional, organism-based; conditions: dose 50-100 µg/ml
Vibrio vulnificus [27] = test: Antibiofilm activity against Vibrio vulnificus V1 assessed as inhibition of biofilm formation at 25 ug/ml incubated for 24 hrs by crystal violet staining based assay; format: functional, organism-based; conditions: dose 25.0 µg/ml
Cell membrane [28] = test: Induction of outer membrane lysis in Vibrio vulnificus at 100 ug/ml by NPN-dye based fluorescence analysis; format: subcellular; conditions: dose 100.0 µg/ml
Cell membrane [29] = test: Induction of membrane depolarization in Vibrio vulnificus at 100 ug/ml by DiBAC4(3) dye based fluorescence analysis; format: subcellular; conditions: dose 100.0 µg/ml
Cell membrane [30] = test: Induction of membrane deformation in Vibrio vulnificus at 1 to 2 times MIC incubated for 30 mins by SEM analysis; format: subcellular
Cell membrane [31] = test: Induction of membrane lysis in Vibrio vulnificus at 1 time MIC incubated for 1 hr by TEM analysis; format: subcellular
Vibrio vulnificus [32] = test: Antibacterial activity against Vibrio vulnificus in presence of 0.1 ug/ml pepsin; format: functional, organism-based
Vibrio vulnificus [33] = test: Antibacterial activity against Vibrio vulnificus in presence of 1 to 10 ug/ml pepsin; format: functional, organism-based
Vibrio vulnificus [34] = test: Antibacterial activity against Vibrio vulnificus in presence of 1 to 10 ug/ml trypsin; format: functional, organism-based
Klebsiella pneumoniae [35] = test: Antibacterial activity against Klebsiella pneumoniae expressing NDM-1 in presence of human serum; format: functional, organism-based
Streptococcus agalactiae [36] = test: Synergistic antibacterial activity against Streptococcus agalactiae in presence of doxycycline by checkerboard microtiter plate assay; format: functional
Acinetobacter baumannii [37] = test: Antibacterial activity against Acinetobacter baumannii; format: functional
Streptococcus iniae [38] = test: Synergistic antibacterial activity against Streptococcus iniae in presence of doxycycline by checkerboard microtiter plate assay; format: functional
Streptococcus agalactiae [39] = test: Synergistic antibacterial activity against Streptococcus agalactiae in presence of meropenem by checkerboard microtiter plate assay; format: functional
Acinetobacter baumannii [40] = test: Additive antibacterial activity against Acinetobacter baumannii in presence of meropenem by checkerboard microtiter plate assay; format: functional
Vibrio vulnificus [41] = test: Synergistic antibacterial activity against Vibrio vulnificus in presence of meropenem by checkerboard microtiter plate assay; format: functional
Vibrio vulnificus [42] = test: Synergistic antibacterial activity against Vibrio vulnificus assessed as doxycycline MIC by checkerboard microtiter plate assay; format: functional
Acinetobacter baumannii [43] = test: Additive antibacterial activity against Acinetobacter baumannii assessed as meropenem MIC by checkerboard microtiter plate assay; format: functional
Pseudomonas aeruginosa [44] = test: Additive antibacterial activity against Pseudomonas aeruginosa assessed as meropenem MIC by checkerboard microtiter plate assay; format: functional
Klebsiella aerogenes [45] = test: Synergistic antibacterial activity against Enterobacter aerogenes assessed as meropenem MIC by checkerboard microtiter plate assay; format: functional
Streptococcus agalactiae [46] = test: Synergistic antibacterial activity against Streptococcus agalactiae assessed as fractional inhibitory concentration in presence of doxycycline by checkerboard microtiter plate assay; format: functional
Acinetobacter baumannii [47] = test: Synergistic antibacterial activity against Acinetobacter baumannii assessed as fractional inhibitory concentration in presence of doxycycline by checkerboard microtiter plate assay; format: functional
Vibrio vulnificus [48] = test: Synergistic antibacterial activity against Vibrio vulnificus assessed as fractional inhibitory concentration in presence of doxycycline by checkerboard microtiter plate assay; format: functional
Streptococcus agalactiae [49] = test: Synergistic antibacterial activity against Streptococcus agalactiae assessed as fractional inhibitory concentration in presence of meropenem by checkerboard microtiter plate assay; format: functional
Klebsiella aerogenes [50] = test: Synergistic antibacterial activity against Enterobacter aerogenes assessed as fractional inhibitory concentration in presence of meropenem by checkerboard microtiter plate assay; format: functional

H-FKWKSVLKGVKGFVKGYF-OH gave an MIC (Pseudomonas aeruginosa [1]) of 25 µg/mL, an MIC (Escherichia coli [2]) of 6.25 µg/mL and an MIC (Klebsiella aerogenes [3]) of 12.5 µg/mL. For the same substance, the MIC (Vibrio harveyi) was > 100 µg/mL, the MIC (Vibrio anguillarum [4]) was 100 µg/mL and the MIC (Salmonella enterica) was 12.5 µg/mL. For the same substance, the MIC [5] was < 1.56 µg/mL, the MIC (Streptococcus iniae [6]) was < 1.56 µg/mL and the MIC (Streptococcus agalactiae [7]) was 3.12 µg/mL. For the same substance, the MIC (Vibrio vulnificus [8]) was 12.5 µg/mL, the MBC (Pseudomonas aeruginosa [9]) was 50 µg/mL and the MBC (Klebsiella pneumoniae [10]) was 25 µg/mL. For the same substance, the MBC (Escherichia coli [11]) was 6.25 µg/mL, the MBC (Vibrio vulnificus [12]) was 6.25 µg/mL and the MBC (Edwardsiella tarda) was 50 µg/mL. For the same substance, the MBC (Vibrio anguillarum [13]) was 100 µg/mL, the MBC (Klebsiella oxytoca) was 25 µg/mL and the MBC (Salmonella typhimurium) was 12.5 µg/mL. The MBC (Streptococcus agalactiae [14]) was 3.12 µg/mL, the MBC (Enterococcus faecalis) was > 100 µg/mL and the MBC (Enterococcus faecium) was > 100 µg/mL. For the same substance, the MFC (Candida tropicalis) was 100 µg/mL, the MBC (Vibrio vulnificus [15]) was 12.5 µg/mL and the MBC (Vibrio vulnificus [16]) was 12.5 µg/mL. For the same substance, the CC50 at 24 h [17] was > 100 µg/mL, the CC50 at 24 h [18] was > 100 µg/mL and the Activity (Vibrio vulnificus [19]) was “Active”. For the same substance, the Activity (Vibrio vulnificus [20]) was “Active”, the Activity (Vibrio vulnificus [21]) was “Active” and the Activity (Vibrio vulnificus [22]) was “Active”. The Activity (Vibrio vulnificus [23]) was “Active”, the Activity (Vibrio vulnificus [24]) was “Active” and the Activity (Vibrio vulnificus [25]) was “Active”. For the same substance, the Activity (Vibrio vulnificus [26]) was “Active”, the Activity (Vibrio vulnificus [27]) was “inactive” and the Activity (Cell membrane [28]) was “Active”. The Activity (Cell membrane [29]) was “Active”, the Activity (Cell membrane [30]) was “Active” and the Activity (Cell membrane [31]) was “Active”. The Activity (Vibrio vulnificus [32]) was “Active”, the Activity (Vibrio vulnificus [33]) was “Active” and the Activity (Vibrio vulnificus [34]) was “Active”. The Activity (Klebsiella pneumoniae [35]) was “Active”, the MIC (Streptococcus agalactiae [36]) was 0.097 µg/mL and the MIC (Acinetobacter baumannii [37]) was 3.12 µg/mL. It also gave an MIC (Streptococcus iniae [38]) of 0.024 µg/mL, an MIC (Streptococcus agalactiae [39]) of 0.097 µg/mL and an MIC (Acinetobacter baumannii [40]) of 0.048 µg/mL. The MIC (Vibrio vulnificus [41]) was 0.097 µg/mL, the MIC (Vibrio vulnificus [42]) was 6 ng/mL and the MIC (Acinetobacter baumannii [43]) was 0.195 µg/mL. The MIC (Pseudomonas aeruginosa [44]) was 0.195 µg/mL, the MIC (Klebsiella aerogenes [45]) was 3 ng/mL and the FIC (Streptococcus agalactiae [46]) was 0.14. The FIC (Acinetobacter baumannii [47]) was 0.07, the FIC (Vibrio vulnificus [48]) was 0.14 and the FIC (Streptococcus agalactiae [49]) was 0.07. The FIC (Klebsiella aerogenes [50]) was 0.14.
